This note sets out measurements from PMC6804459 (Acta Pharmaceutica Sinica. B, 2019).

The Kd is the concentration at which binding is half-saturated.

This assay deals with recombinant human PrP (rhPrP, PrP^C) (Homo sapiens, UniProt P04156). Kind of assay: biochemical. Format: binding.

Take `Cc1cc(Nc2ccc(NC(=O)c3ccc(Nc4ccnc5ccccc45)cc3)cc2)nc(N)n1` [SGI-1027]: the dissociation constant Kd worked out at 1.61 µM.
